# System: MV-4-11 cells
# Assay: Gene expression microarray analysis (Affymetrix PrimeView) and GSEA
# Type: cell-based, human
# Parameters: RFU PODN (11730768_x_at) / Fold change /veh PODN (11730768_x_at) / RFU LINC00158 (11744669_a_at) / Fold change /veh LINC00158 (11744669_a_at) / RFU DUSP10 (11751237_a_at) / Fold change /veh DUSP10 (11751237_a_at) / RFU ID3 (11757404_x_at) / Fold change /veh ID3 (11757404_x_at) / RFU PLEKHG5 (11737974_s_at) / Fold change /veh PLEKHG5 (11737974_s_at) / RFU LRRC4B (11730491_at) / Fold change /veh LRRC4B (11730491_at) / RFU GIMAP4 (11747438_a_at) / Fold change /veh GIMAP4 (11747438_a_at) / RFU KRT8 (11758183_x_at) / Fold change /veh KRT8 (11758183_x_at) / RFU CNN1 (11734310_a_at) / Fold change /veh CNN1 (11734310_a_at) / RFU VPS37D (11726825_at) / Fold change /veh VPS37D (11726825_at) / RFU C10orf10 (11716522_x_at) / Fold change /veh C10orf10 (11716522_x_at) / RFU KIR2DL2 /// KIR2DL4 /// KIR2DL5A /// KIR2DL5B /// KIR2DS1 /// KIR2DS2 /// KIR2DS3 /// KIR2DS4 /// KIR3DL3 /// KIR3DL3 /// KIR3DS1 (11738374_at) / Fold change /veh KIR2DL2 /// KIR2DL4 /// KIR2DL5A /// KIR2DL5B /// KIR2DS1 /// KIR2DS2 /// KIR2DS3 /// KIR2DS4 /// KIR3DL3 /// KIR3DL3 /// KIR3DS1 (11738374_at) / RFU C1QL1 (11718748_at) / Fold change /veh C1QL1 (11718748_at) / RFU TMPRSS4 (11747572_a_at) / Fold change /veh TMPRSS4 (11747572_a_at) / RFU HAMP (11756126_x_at) / Fold change /veh HAMP (11756126_x_at) / RFU RNFT2 (11725882_a_at) / Fold change /veh RNFT2 (11725882_a_at) / RFU NR4A2 (11747474_a_at) / Fold change /veh NR4A2 (11747474_a_at) / RFU ABCC12 (11746883_a_at) / Fold change /veh ABCC12 (11746883_a_at) / RFU TMEM136 (11760407_x_at) / Fold change /veh TMEM136 (11760407_x_at) / RFU CLDN22 /// WWC2 (11732394_at) / Fold change /veh CLDN22 /// WWC2 (11732394_at) / RFU HLA-DPB1 (11760878_x_at) / Fold change /veh HLA-DPB1 (11760878_x_at) / RFU SPINT1 (11716480_a_at) / Fold change /veh SPINT1 (11716480_a_at) / RFU GAP43 (11754022_s_at) / Fold change /veh GAP43 (11754022_s_at) / RFU A4GNT (11735810_at) / Fold change /veh A4GNT (11735810_at) / RFU PRB3 (11715151_x_at) / Fold change /veh PRB3 (11715151_x_at) / RFU TUBB4B (11761932_at) / Fold change /veh TUBB4B (11761932_at) / RFU CAPN14 (11732068_a_at) / Fold change /veh CAPN14 (11732068_a_at) / RFU TMCC2 (11721928_a_at) / Fold change /veh TMCC2 (11721928_a_at) / RFU IRGQ (11745062_a_at) / Fold change /veh IRGQ (11745062_a_at) / RFU FAM174B (11720279_a_at) / Fold change /veh FAM174B (11720279_a_at) / RFU TMPRSS4 (11748680_a_at) / Fold change /veh TMPRSS4 (11748680_a_at) / RFU FAM212B (11763350_a_at) / Fold change /veh FAM212B (11763350_a_at) / RFU PLEKHG5 (11743358_a_at) / Fold change /veh PLEKHG5 (11743358_a_at) / RFU ZSCAN30 (11745921_a_at) / Fold change /veh ZSCAN30 (11745921_a_at) / RFU CMKLR1 (11741424_a_at) / Fold change /veh CMKLR1 (11741424_a_at) / RFU LOC101060620 /// MAPK8IP1 (11723275_at) / Fold change /veh LOC101060620 /// MAPK8IP1 (11723275_at) / RFU SPTSSB (11747773_x_at) / Fold change /veh SPTSSB (11747773_x_at) / RFU PRSS12 (11739890_at) / Fold change /veh PRSS12 (11739890_at) / RFU BIN1 (11741810_x_at) / Fold change /veh BIN1 (11741810_x_at) / RFU WNT11 (11732464_a_at) / Fold change /veh WNT11 (11732464_a_at) / RFU C10orf10 (11716521_a_at) / Fold change /veh C10orf10 (11716521_a_at) / RFU C5orf56 (11738089_at) / Fold change /veh C5orf56 (11738089_at) / RFU CYB561 (11721691_x_at) / Fold change /veh CYB561 (11721691_x_at) / RFU ANKRD19P (11752326_a_at) / Fold change /veh ANKRD19P (11752326_a_at) / RFU OR2T12 /// OR2T33 /// OR2T8 (11738714_s_at) / Fold change /veh OR2T12 /// OR2T33 /// OR2T8 (11738714_s_at) / RFU VCAN (11748164_a_at) / Fold change /veh VCAN (11748164_a_at) / RFU JSRP1 (11732532_at) / Fold change /veh JSRP1 (11732532_at) / RFU KRTAP10-11 (11738290_x_at) / Fold change /veh KRTAP10-11 (11738290_x_at) / RFU MYO3A (11730013_a_at) / Fold change /veh MYO3A (11730013_a_at) / RFU EBF3 (11725865_a_at) / Fold change /veh EBF3 (11725865_a_at) / RFU CAMK2N1 (11719241_x_at) / Fold change /veh CAMK2N1 (11719241_x_at) / RFU C5orf56 (11738088_a_at) / Fold change /veh C5orf56 (11738088_a_at) / RFU OLFML3 (11715873_a_at) / Fold change /veh OLFML3 (11715873_a_at) / RFU LOC100653217 /// NTM (11731650_a_at) / Fold change /veh LOC100653217 /// NTM (11731650_a_at) / RFU MAPK11 (11762145_a_at) / Fold change /veh MAPK11 (11762145_a_at) / RFU FIZ1 (11724087_x_at) / Fold change /veh FIZ1 (11724087_x_at) / RFU OASL (11726364_x_at) / Fold change /veh OASL (11726364_x_at) / RFU SOX15 (11748057_x_at) / Fold change /veh SOX15 (11748057_x_at) / RFU CD79A (11719716_a_at) / Fold change /veh CD79A (11719716_a_at) / RFU HIST1H1D (11736915_at) / Fold change /veh HIST1H1D (11736915_at) / RFU CASKIN2 (11723855_a_at) / Fold change /veh CASKIN2 (11723855_a_at) / RFU LOC730098 (11760151_x_at) / Fold change /veh LOC730098 (11760151_x_at) / RFU OR4N2 (11742367_at) / Fold change /veh OR4N2 (11742367_at) / RFU PRRT2 (11749266_a_at) / Fold change /veh PRRT2 (11749266_a_at) / RFU SNX32 (11753110_a_at) / Fold change /veh SNX32 (11753110_a_at) / RFU CDHR5 (11726645_a_at) / Fold change /veh CDHR5 (11726645_a_at) / RFU RCAN1 (11760418_a_at) / Fold change /veh RCAN1 (11760418_a_at) / RFU FAM167A (11723789_a_at) / Fold change /veh FAM167A (11723789_a_at) / RFU FAM26E (11764081_at) / Fold change /veh FAM26E (11764081_at) / RFU ISYNA1 (11749810_s_at) / Fold change /veh ISYNA1 (11749810_s_at) / RFU ACY1 (11761880_at) / Fold change /veh ACY1 (11761880_at) / RFU 11764098_at / Fold change /veh 11764098_at / RFU SAMD14 (11745864_x_at) / Fold change /veh SAMD14 (11745864_x_at) / RFU NPB (11741838_a_at) / Fold change /veh NPB (11741838_a_at) / RFU TMPRSS6 (11731388_a_at) / Fold change /veh TMPRSS6 (11731388_a_at) / RFU KRTAP10-2 (11738614_at) / Fold change /veh KRTAP10-2 (11738614_at) / RFU ARHGAP8 /// PRR5-ARHGAP8 (11727945_x_at) / Fold change /veh ARHGAP8 /// PRR5-ARHGAP8 (11727945_x_at) / RFU KRTAP5-7 /// NADSYN1 (11734609_at) / Fold change /veh KRTAP5-7 /// NADSYN1 (11734609_at) / RFU RASL12 (11751679_a_at) / Fold change /veh RASL12 (11751679_a_at) / RFU CDKN2B (11736163_a_at) / Fold change /veh CDKN2B (11736163_a_at) / RFU PRF1 (11729649_at) / Fold change /veh PRF1 (11729649_at) / RFU, ZNF638 /// ZNF638-IT1 / Fold change vs veh, ZNF638 /// ZNF638-IT1 / RFU, PANK3 / Fold change vs veh, PANK3 / RFU, SH3YL1 / Fold change vs veh, SH3YL1 / RFU, ZEB2 / Fold change vs veh, ZEB2 / RFU, NRIP1 / Fold change vs veh, NRIP1 / RFU, PTTG1IP / Fold change vs veh, PTTG1IP / RFU, CAPN2 / Fold change vs veh, CAPN2 / RFU, MED14 / Fold change vs veh, MED14 / RFU, SNORA58 / Fold change vs veh, SNORA58 / RFU, C1orf63 / Fold change vs veh, C1orf63 / RFU, LRRFIP1 / Fold change vs veh, LRRFIP1 / RFU, NDUFAF7 / Fold change vs veh, NDUFAF7 / RFU, SLC12A2 / Fold change vs veh, SLC12A2 / RFU, IBTK / Fold change vs veh, IBTK / RFU, ESF1 / Fold change vs veh, ESF1 / Fold change vs veh, TMEM50B / RFU, TAOK1 / Fold change vs veh, TAOK1 / RFU, ACBD3 / Fold change vs veh, ACBD3 / RFU, TMA16 / Fold change vs veh, TMA16 / RFU, RWDD3 / Fold change vs veh, RWDD3 / RFU, BCAT1 / Fold change vs veh, BCAT1 / RFU, EDEM3 / Fold change vs veh, EDEM3 / RFU, TMEM33 / Fold change vs veh, TMEM33 / RFU, WDR75 / Fold change vs veh, WDR75 / RFU, AHCTF1 / Fold change vs veh, AHCTF1 / RFU, TFRC / Fold change vs veh, TFRC / RFU, ZDHHC17 / Fold change vs veh, ZDHHC17 / RFU, NOM1 / Fold change vs veh, NOM1 / RFU, ARL8B / Fold change vs veh, ARL8B / RFU, ZBTB11 / Fold change vs veh, ZBTB11 / RFU, TAMM41 / Fold change vs veh, TAMM41 / RFU, KIAA1704 /// LOC100996395 / Fold change vs veh, KIAA1704 /// LOC100996395 / RFU, ING1 / Fold change vs veh, ING1 / RFU, TRMT61B / Fold change vs veh, TRMT61B / RFU, FUBP3 / Fold change vs veh, FUBP3 / RFU, TP53 / Fold change vs veh, TP53 / RFU, TNKS2 / Fold change vs veh, TNKS2 / RFU, ZFP14 / Fold change vs veh, ZFP14 / RFU, ACTR2 / Fold change vs veh, ACTR2 / RFU, PPP3R1 / Fold change vs veh, PPP3R1 / RFU, PIK3R1 / Fold change vs veh, PIK3R1 / RFU, HNRNPA1 / Fold change vs veh, HNRNPA1 / RFU, RNF170 / Fold change vs veh, RNF170 / RFU, ZNF28 / Fold change vs veh, ZNF28 / RFU, RNGTT / Fold change vs veh, RNGTT / RFU, OGT / Fold change vs veh, OGT / RFU, BRD1 / Fold change vs veh, BRD1 / RFU, MARS / Fold change vs veh, MARS / RFU, ZNF655 / Fold change vs veh, ZNF655 / RFU, FAHD1 / Fold change vs veh, FAHD1 / RFU, BDP1 / Fold change vs veh, BDP1 / RFU, LRRCC1 / Fold change vs veh, LRRCC1 / RFU, ARID1A / Fold change vs veh, ARID1A / RFU, ZNF146 / Fold change vs veh, ZNF146 / RFU, ZNF330 / Fold change vs veh, ZNF330 / RFU, GPN3 / Fold change vs veh, GPN3 / RFU, C9orf123 / Fold change vs veh, C9orf123 / RFU, N4BP2L2 / Fold change vs veh, N4BP2L2 / RFU, ARFIP1 / Fold change vs veh, ARFIP1 / RFU, FAM179B / Fold change vs veh, FAM179B / RFU, BCL10 / Fold change vs veh, BCL10 / RFU, UHRF1BP1L / Fold change vs veh, UHRF1BP1L / RFU, BET1 / Fold change vs veh, BET1 / RFU, CNOT2 / Fold change vs veh, CNOT2 / RFU, ZNF268 / Fold change vs veh, ZNF268 / Fold change vs veh, ZNF507 / RFU, DGCR2 / Fold change vs veh, DGCR2 / RFU, WDSUB1 / Fold change vs veh, WDSUB1 / Fold change vs veh, HSP90B1 /// MIR3652 / RFU, ADSS / Fold change vs veh, ADSS / RFU, GK / Fold change vs veh, GK / RFU, ZNF148 / Fold change vs veh, ZNF148 / RFU, TAF9 / Fold change vs veh, TAF9 / RFU, SLC1A5 / Fold change vs veh, SLC1A5 / RFU, SLMO2 / Fold change vs veh, SLMO2 / RFU, ABCC4 / Fold change vs veh, ABCC4 / RFU, LOC101060439 /// RAP1B / Fold change vs veh, LOC101060439 /// RAP1B / RFU, RFX7 / Fold change vs veh, RFX7 / RFU, GTPBP10 / Fold change vs veh, GTPBP10 / RFU, CNEP1R1 / Fold change vs veh, CNEP1R1 / RFU, BIVM-ERCC5 /// ERCC5 / Fold change vs veh, BIVM-ERCC5 /// ERCC5 / RFU, ILF3 / Fold change vs veh, ILF3 / RFU 11762660_at / Fold change /veh 11762660_at / RFU VCAN (11757783_s_at) / Fold change /veh VCAN (11757783_s_at) / RFU DDX43 (11728927_at) / Fold change /veh DDX43 (11728927_at) / RFU KRT8 (11758188_x_at) / Fold change /veh KRT8 (11758188_x_at) / RFU NKD1 (11759106_at) / Fold change /veh NKD1 (11759106_at) / RFU SRD5A1 (11742802_a_at) / Fold change /veh SRD5A1 (11742802_a_at) / RFU TPSAB1 /// TPSB2 (11721975_s_at) / Fold change /veh TPSAB1 /// TPSB2 (11721975_s_at) / RFU GSTM3 (11746129_a_at) / Fold change /veh GSTM3 (11746129_a_at) / RFU IL23R (11737362_x_at) / Fold change /veh IL23R (11737362_x_at) / RFU TMEM51 (11727254_a_at) / Fold change /veh TMEM51 (11727254_a_at) / RFU PIWIL2 (11732686_x_at) / Fold change /veh PIWIL2 (11732686_x_at) / RFU ORM1 (11744905_x_at) / Fold change /veh ORM1 (11744905_x_at) / RFU CCDC152 (11743942_at) / Fold change /veh CCDC152 (11743942_at) / RFU ECM1 (11717891_a_at) / Fold change /veh ECM1 (11717891_a_at) / RFU IL23R (11748794_a_at) / Fold change /veh IL23R (11748794_a_at) / RFU TNFAIP8L3 (11732012_x_at) / Fold change /veh TNFAIP8L3 (11732012_x_at) / RFU MBOAT4 (11741988_at) / Fold change /veh MBOAT4 (11741988_at) / RFU 11764193_at / Fold change /veh 11764193_at / RFU TMEM53 (11763286_at) / Fold change /veh TMEM53 (11763286_at) / RFU MAGEB2 (11727129_at) / Fold change /veh MAGEB2 (11727129_at) / RFU TMEM200A (11744735_a_at) / Fold change /veh TMEM200A (11744735_a_at) / RFU CCDC152 (11751479_a_at) / Fold change /veh CCDC152 (11751479_a_at) / RFU FAM211A (11726209_a_at) / Fold change /veh FAM211A (11726209_a_at) / RFU RGS16 (11746705_a_at) / Fold change /veh RGS16 (11746705_a_at) / RFU VCAN (11755009_s_at) / Fold change /veh VCAN (11755009_s_at) / RFU RHOB (11743442_s_at) / Fold change /veh RHOB (11743442_s_at) / RFU RGS16 (11720943_a_at) / Fold change /veh RGS16 (11720943_a_at) / RFU RGS16 (11720944_at) / Fold change /veh RGS16 (11720944_at) / RFU, VPS4B / Fold change vs veh, VPS4B / RFU, CREB1 / Fold change vs veh, CREB1 / RFU, DNAJC13 / Fold change vs veh, DNAJC13 / RFU, GNAQ / Fold change vs veh, GNAQ / RFU, CDK5R1 / Fold change vs veh, CDK5R1 / RFU, ZRANB3 / Fold change vs veh, ZRANB3 / RFU, CUL4A / Fold change vs veh, CUL4A / RFU, CCNY / Fold change vs veh, CCNY / RFU, UFL1 / Fold change vs veh, UFL1 / RFU, COG3 / Fold change vs veh, COG3 / RFU, DIAPH2 / Fold change vs veh, DIAPH2 / RFU, SKA2 / Fold change vs veh, SKA2 / RFU, AFF3 / Fold change vs veh, AFF3 / RFU, LMF1 / Fold change vs veh, LMF1 / RFU, IPO11 / Fold change vs veh, IPO11 / RFU, DFFB / Fold change vs veh, DFFB / RFU, FOXP1 / Fold change vs veh, FOXP1 / RFU, CARD8 / Fold change vs veh, CARD8 / RFU, STRN3 / Fold change vs veh, STRN3 / RFU, ADK / Fold change vs veh, ADK / RFU, RASSF2 / Fold change vs veh, RASSF2 / RFU, WIPF1 / Fold change vs veh, WIPF1 / RFU, LARP1B / Fold change vs veh, LARP1B / RFU, RASA1 / Fold change vs veh, RASA1 / RFU, RB1 / Fold change vs veh, RB1 / RFU, PPFIA1 / Fold change vs veh, PPFIA1 / RFU, MAT2A / Fold change vs veh, MAT2A / RFU, CCT5 / Fold change vs veh, CCT5 / RFU, WDR92 / Fold change vs veh, WDR92 / RFU, CUX1 / Fold change vs veh, CUX1 / RFU, TTC7A / Fold change vs veh, TTC7A / RFU, TMEM135 / Fold change vs veh, TMEM135 / RFU, DEPTOR / Fold change vs veh, DEPTOR / RFU, CPM / Fold change vs veh, CPM / RFU, DNAJB6 / Fold change vs veh, DNAJB6 / RFU, CACNA2D3 / Fold change vs veh, CACNA2D3 / RFU, DTX4 / Fold change vs veh, DTX4 / RFU, TFCP2 / Fold change vs veh, TFCP2 / RFU, GMCL1 /// GMCL1P1 / Fold change vs veh, GMCL1 /// GMCL1P1 / RFU, AEBP2 / Fold change vs veh, AEBP2 / RFU, SNHG1 /// SNORD22 /// SNORD25 /// SNORD26 /// SNORD27 /// SNORD28 /// SNORD29 /// SNORD31 / Fold change vs veh, SNHG1 /// SNORD22 /// SNORD25 /// SNORD26 /// SNORD27 /// SNORD28 /// SNORD29 /// SNORD31 / Fold change (Aza/veh), C12orf56 (ProbeSet 11735607_a_at) / Fold change (ACY-1035/veh), C12orf56 (ProbeSet 11735607_a_at) / Fold change (Aza/veh), FGFR1OP (ProbeSet 11751329_s_at) / Fold change (ACY-1035/veh), FGFR1OP (ProbeSet 11751329_s_at) / Fold change (Aza/veh), VPS36 (ProbeSet 11739960_a_at) / Fold change (ACY-1035/veh), VPS36 (ProbeSet 11739960_a_at) / RFU SYPL1 (11715823_x_at) / Fold change /veh SYPL1 (11715823_x_at) / RFU IGFBP7 (11715501_s_at) / Fold change /veh IGFBP7 (11715501_s_at) / RFU REEP3 (11722064_at) / Fold change /veh REEP3 (11722064_at) / RFU IGLL1 (11728026_x_at) / Fold change /veh IGLL1 (11728026_x_at): dose or concentration left out as unconfirmed
# Conditions: ProbeSet 11758397_s_at; LIST B
structure (smiles),measurement,value
Nc1ccc(-c2cccs2)cc1NC(=O)c1ccc2c(c1)cc(C1CC1)n2CCN1CCOCC1 [ACY-1035],"Fold change vs veh, RNF170",0.96

# Source: paper PMC5218480 (PLoS ONE, 2017)
